Series [1] relates to A. baumannii strains #1791 and ATCC17978. Kind of series: microbe, parasite or virus in culture. The settings on record: Acinetobacter baumannii, ATCC17978, 24 h, 37° C.
Series [2] concerns A. baumannii strains #1791, S5 and ATCC17978. Description: In vitro bactericidal activities of peptides (Example 10). The class given is cell-based.
Another series concerns B cell line. Description: in vitro. Type of series: cell-based.
The nature of a further series: in vitro. Type of series: cell-based. As to conditions: B cell line.
Series [3] concerns A. baumannii strains #1791 and ATCC17978. The settings on record: Mueller-Hinton broth (pH 7.9), 37° C., 24 hour.
The subject of another series is Human B-cells. Description: B cell survival, CellTiter 96 Non-Radioactive Cell Proliferation Assay. As to conditions: highest concentration tested (80 μM); 1 hr at 37° C.
The test system of the next series is red blood cells (RBC). Kind of series: Hemolysis, release of hemoglobin (OD405). The settings on record: 80-0.3125 μM; 1 hour at 37° C.; Triton X-100 positive control.
Another series deals with A. baumannii. Description: Survival of mice after lethal injection of A. baumannii. The class given is in vivo, C57BL/6 mice. As to conditions: 1 mg of F307 IP two hours after 10^8 CFU IP; 14 days after infection. The method, then: Twenty-two C57BL/6 mice were given 10^8 CFU of A. baumannii strain intraperitoneally (IP). Two hours later, two mice were euthanized and organs examine as described below, ten mice injected IP with 1 mg of F307 and ten mice were injected IP with control vehicle.

Series [4] relates to A. baumannii clinical isolates. Kind of series: Crude lysate clearing zones on A. baumannii soft agar plates. The settings on record: thirteen A. baumannii clinical isolates.
Series [5] has as its system A. baumannii 1791 biofilm. Description: In vitro treatment of catheter adherent A. baumannii 1791 biofilm with F307.
Series [6] relates to A. baumannii strain 1791 biofilm. Kind of series: Mouse catheter model. As to conditions: 250 μl of F307 (1 mg) injected into catheter under the dermis, repeated after 4 hours. The class given is in vivo, BALB/C mice. How it is done:
Mouse Catheter Model: Several 3 inch section of catheter tubing were seeded (1:1000) with A. baumannii strain 1791. A. baumannii biofilms were formed as described above. The back of twenty BALB/C mice were shaved, their backs were sterilized, and then an incision was made to place a 1 inch section of the catheter with a biofilm already formed under the dermis of the back. The incisions were then stapled shut. After 24 hours, 250 μl of F307 (1 mg) (n=10) or 250 μl control vehicle (n=10) was injected directly into the catheter that was under the dermis of the mouse. The treatment was repeated after 4 hours. After 3 hours the catheters were removed from the mice, and assayed as described in Experiment 4.

Setting [7] is: pH 7.9, strain #1791, Mueller-Hinton broth (pH 7.9).
[8] abbreviates: pH 7.9, strain ATCC17978, Mueller-Hinton broth (pH 7.9).

Data on nine molecules can be found in patent publication US11180744B2, “Acinetobacter lysins” (priority 2014, dated 2021).

“And” between values parts separate entries of the source, which are not always exact repeats. Identical values can stand only once. Like-named read-outs stand apart in the source and are kept apart here. Where no end group is shown, it is not given here.

With `CC(C)(O/N=C(\C(=O)N[C@@H]1C(=O)N2C(C(=O)[O-])=C(C[n+]3ccccc3)CS[C@H]12)c1csc(N)n1)C(=O)O` [Ceftazidime], the MIC in series [1] (setting [7]) was 250 µg/mL and 457 µM; in series [1] (setting [8]) it was 12 µg/mL and 21.9 µM.

As for `C[C@H]1COc2c(N3CCN(C)CC3)c(F)cc3c(=O)c(C(=O)O)cn1c23` [Levofloxacin], the MIC in [1] (setting [7]) is 6 µg/mL and 16.6 µM; in series [1] (setting [8]), ≤ 0.1 µg/mL and 0.3 µM.

Turning to “P307CS-8: SEQ ID NO: 51: NAKDYKGAAAEFPKWNKAGGRVLAGLVKRRKCSQRQSES (P307CS-8)”, the “activity of P307CS-8 compared with P307SQ-8C” value in [2] (scrambled last eight amino acids) is “comparable”.

As to SQSRESQC (Ex) [reference compound], the “bactericidal activity of SQSRESQC alone or combined with P307” value in series [2] (strains #1791 and S5, same molar concentration as 50 μg/mL P307) is “no activity”.

For NAKDYKGAAAEFPKWNKAGGRVLAGLVKRRK [P307], in the series with B cell line, the “effect on cell number of a B cell line” value is recorded as “only a slight effect on cell number”. In “in vitro”, the viability at 5 min, 2 μg stood at 95.2%; the viability at 5 min, 20 μg stood at 97.2%; the viability at 5 min, 200 μg was 94.6%; the viability at 0.5 h, 2 μg is 76.9%. In “in vitro”, this molecule gave a viability at 0.5 h, 20 μg of 88.6%; a viability at 1 h, 2 μg of 89.3%; a viability at 1 h, 20 μg of 89.7%; a viability at 1 h, 200 μg of 71.4%. In the series “in vitro”, this molecule showed a viability at 2 h, 2 μg of 92.5%; a viability at 2 h, 20 μg of 90.3%; a viability at 2 h, 200 μg of 71.9%; a viability at 3 h, 2 μg of 93.8%. In the series “in vitro”, this molecule registered a viability at 3 h, 20 μg of 91%; a viability at 3 h, 200 μg of 58.6%; a viability at 24 h, 2 μg of 96.3%; a viability at 24 h, 20 μg of 94.2%. For the same molecule, the viability at 24 h, 200 μg in the series “in vitro” is 76.3%.

As for Polymyxin B [reference compound], the MIC in [3] (strain #1791) is 0.25 μg/mL and 0.19 μM; in series [3] (strain ATCC17978) it was 0.25 μg/mL and 0.19 μM.

“NAKDYKGAAAEFPKWNKAGGRVLAGLVKRRKSQSRESQC [P307SQ-8C]”: the “viability of B cells” value in the series with Human B-cells is “remains the same as the buffer control”. Moreover, the “integrity of RBCs (hemolysis)” value with red blood cells (RBC) is recorded as “not affected”.

Consider “P307AE-8: SEQ ID NO: 49: NAKDYKGAAAEFPKWNKAGGRVLAGLVKRRKAEMELFLK (P307AE-8)”, for which the “decrease in viable bacteria” value in series [2] (50 μg/mL, 2 hours, room temperature) is on record as roughly 3.8 log-unit.

B1: F307: phage lysin polypeptide, SEQ ID NO: 1, 16 kDa (protein, listed as Acinetobacter baumannii)
chain: VKTSNPGVDLIKGFEGLRLKAYDDGVGVWTIGFGTIKYPNGVRVKKGDTCTESQAEEYLRNDLVVFESAINRLVKVPLNQNQFDALASFTYNLGEGNLSISTLLKKLNAKDYKGAAAEFPKWNKAGGRVLAGLVKRRKAEMELFLK
Molecule B1 yielded a survival in the series with A. baumannii of 50%. Further, in [4], the “percent of Acinetobacter strains lysed” value is “about 90%”. Further, the “drop in the number of colony forming units” value in [5] (3-day biofilm on catheter, after 30 minutes of treatment) is on record as roughly 4 log. The values for the CFU in [5] (15 minutes F307 treatment) and in series [5] (30 minutes F307 treatment) were 9.0 × 10^4 CFU and 6.0 × 10^3 CFU, respectively. In addition, the “reduction of bacterial counts compared with control” value in series [6] is on record as “approximately 2 logs”.

What is called viability is the share of living cells, or the viability signal relative to a control.
